Reference: patent publication US6737383B1, “Herbicidal oxadiazolidines” (priority 1999, dated 2004)

Key:
[1] = system: bedstraw; test: Test B pre/postemergence bedstraw; type: in vivo, Galium aparine; conditions: for Plant response rating, Bedstraw: scale of 0 to 10 where 0 is no effect and 10 is complete control
Method in brief: (§1)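 Response is a visual 0-to-10 score relative to untreated plants, where 0 means no effect and 10 means complete control, taken twelve to sixteen days after application. Treatments went onto soil at planting and onto foliage of 1- to 4-leaf plants, using a surfactant-containing non-phytotoxic solvent.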

[2] = system: morningglory; test: Test B pre/postemergence morningglory; type: in vivo, Ipomoea hederacea; conditions: for Plant response rating, Morningglory: scale of 0 to 10 where 0 is no effect and 10 is complete control
Method in brief: as §1

[3] = system: wheat; test: Test B pre/postemergence wheat; type: in vivo, Triticum aestivum; conditions: for Plant response rating, Wheat: scale of 0 to 10 where 0 is no effect and 10 is complete control
Method in brief: as §1

[4] = system: surinam grass; test: Test B pre/postemergence surinam grass; type: in vivo, Brachiaria decumbens
Method in brief: as §1

[5] = system: giant foxtail; test: Test B pre/postemergence giant foxtail; type: in vivo, Setaria faberii
Method in brief: as §1

[6] = system: wild oat; test: Test B pre/postemergence wild oat; type: in vivo, Avena fatua; conditions: for Plant response rating, Wild oats: scale of 0 to 10 where 0 is no effect and 10 is complete control
Method in brief: as §1

[7] = system: rape; test: Test B pre/postemergence rape; type: in vivo, Brassica napus; conditions: for Plant response rating, Rape: scale of 0 to 10 where 0 is no effect and 10 is complete control
Method in brief: as §1

[8] = system: smallflower flatsedge; test: Test B flood test smallflower flatsedge; type: in vivo, Cyperus difformis
Method in brief: (§2)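 Read-out is a visual response score from 0 (no effect) to 10 (complete control), assigned by comparison with untreated controls. Treatment was applied at the 2-leaf stage, and plants stayed in the greenhouse for twelve to sixteen days before scoring.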

[9] = system: blackgrass; test: Test B pre/postemergence blackgrass; type: in vivo, Alopecurus myosuroides
Method in brief: as §1

[10] = system: soybean; test: Test B pre/postemergence soybean; type: in vivo, Glycine max; conditions: for Plant response rating, Soybean: scale of 0 to 10 where 0 is no effect and 10 is complete control
Method in brief: as §1

[11] = system: corn; test: Test B pre/postemergence corn; type: in vivo, Zea mays
Method in brief: as §1

[12] = system: purple nutsedge; test: Test B pre/postemergence purple nutsedge; type: in vivo, Cyperus rotundus; conditions: for Plant response rating, Nutsedge: scale of 0 to 10 where 0 is no effect and 10 is complete control
Method in brief: as §1

[13] = system: velvetleaf; test: Test B pre/postemergence velvetleaf; type: in vivo, Abutilon theophrasti; conditions: for Plant response rating, Velvetleaf: scale of 0 to 10 where 0 is no effect and 10 is complete control
Method in brief: as §1

[14] = system: crabgrass; test: Test B pre/postemergence crabgrass; type: in vivo, Digitaria sanguinalis
Method in brief: as §1

[15] = system: duck salad; test: Test B flood test duck salad; type: in vivo, Heteranthera limosa
Method in brief: as §2

[16] = system: rice; test: Test B flood test rice; type: in vivo, Oryza sativa
Method in brief: as §2

[17] = Preemergence, Rate 250 g/ha, scale 0 to 10, 0 is no effect, 10 is complete control
[18] = Preemergence, Rate 500 g/ha, scale 0 to 10, 0 is no effect, 10 is complete control
[19] = Rate 62 g/ha, Postemergence, scale 0 to 10 (0 no effect, 10 complete control)
[20] = Rate 125 g/ha, Postemergence, scale 0 to 10, 0 is no effect, 10 is complete control
[21] = Postemergence, Rate 250 g/ha, scale 0 to 10
[22] = Postemergence, Rate 500 g/ha, scale of 0 to 10 where 0 is no effect and 10 is complete control
[23] = Preemergence, Rate 62 g/ha, scale of 0 to 10 where 0 is no effect and 10 is complete control
[24] = Preemergence, Rate 125 g/ha, scale of 0 to 10 where 0 is no effect and 10 is complete control
[25] = Rate 62 g/ha, flood test species, Pre-emergence, visual evaluation after twelve to sixteen days
[26] = Rate 125 g/ha, under heading Pre-emergence, flood test species, visual evaluation after twelve to sixteen days
[27] = Rate 250 g/ha, Pre-emergence (flood test species), scale 0 to 10, 0 is no effect, 10 is complete control
[28] = Rate 500 g/ha, Pre-emergence, flood test species, scale 0 to 10 (0 no effect, 10 complete control)

CC(C)N(C(=O)n1oc(=O)n(COC(=O)C(C)(C)C)c1=O)c1ccc(F)cc1 [Compound 462]
Plant response rating, Bedstraw ([1]; Preemergence, Rate 62 g/ha): 0 | Plant response rating, Bedstraw ([1]; Preemergence, Rate 125 g/ha): 0 | Bedstraw plant response rating [1, 17]: 0 | Bedstraw plant response rating [1, 18]: 0 | Bedstraw plant response rating [1, 19]: 0 | Bedstraw plant response rating [1, 20]: 0 | Morningglory plant response rating [2, 21]: 0 | Plant response rating, Morningglory ([2]; Preemergence, Rate 62 g/ha): 0 | Plant response rating, Morningglory ([2]; Preemergence, Rate 125 g/ha): 0 | Morningglory plant response rating [2, 17]: 0 | Morningglory plant response rating [2, 18]: 0 | Morningglory plant response rating [2, 19]: 0 | Morningglory plant response rating [2, 20]: 0 | Wheat plant response rating [3, 21]: 0 | Plant response rating, Wheat ([3]; Preemergence, Rate 62 g/ha): 0 | Plant response rating, Wheat ([3]; Preemergence, Rate 125 g/ha): 0 | Wheat plant response rating [3, 17]: 0 | Wheat plant response rating [3, 18]: 0 | Wheat plant response rating [3, 19]: 0 | Wheat plant response rating [3, 20]: 0 | B. signalgrass plant response rating ([4]; Postemergence, Rate 250 g/ha, scale 0 to 10, 0 no effect, 10 complete control): 0 | B. signalgrass plant response rating [4, 22]: 0 | Plant response rating, B. signalgrass [4, 23]: 0 | Plant response rating, B. signalgrass [4, 24]: 0 | B. signalgrass plant response rating [4, 17]: 0 | B. signalgrass plant response rating [4, 18]: 0 | B. signalgrass plant response rating [4, 19]: 0 | B. signalgrass plant response rating [4, 20]: 0 | Giant foxtail plant response rating [5, 21]: 0 | Giant foxtail plant response rating [5, 22]: 0 | Plant response rating, Giant foxtail [5, 23]: 0 | Plant response rating, Giant foxtail [5, 24]: 0 | Giant foxtail plant response rating [5, 17]: 0 | Giant foxtail plant response rating [5, 18]: 0 | Giant foxtail plant response rating [5, 19]: 0 | Giant foxtail plant response rating [5, 20]: 0 | Wild oats plant response rating [6, 21]: 0 | Plant response rating, Wild oats ([6]; Preemergence, Rate 62 g/ha): 0 | Plant response rating, Wild oats ([6]; Preemergence, Rate 125 g/ha): 0 | Wild oats plant response rating [6, 17]: 0 | Wild oats plant response rating [6, 18]: 0 | Wild oats plant response rating [6, 19]: 0 | Wild oats plant response rating [6, 20]: 0 | Rape plant response rating [7, 21]: 0 | Plant response rating, Rape ([7]; Preemergence, Rate 62 g/ha): 0 | Plant response rating, Rape ([7]; Preemergence, Rate 125 g/ha): 0 | Rape plant response rating [7, 17]: 0 | Rape plant response rating [7, 18]: 0 | Rape plant response rating [7, 19]: 0 | Rape plant response rating [7, 20]: 0 | Plant response rating, S. Flatsedge (0 to 10 scale, 0 is no effect, 10 is complete control) [8, 25]: 0 | S. Flatsedge plant response rating (0 to 10 scale, 0 is no effect, 10 is complete control) [8, 26]: 0 | S. Flatsedge plant response rating [8, 27]: 0 | S. Flatsedge plant response rating [8, 28]: 0 | Blackgrass plant response rating [9, 21]: 0 | Blackgrass plant response rating [9, 22]: 0 | Plant response rating, Blackgrass [9, 23]: 0 | Plant response rating, Blackgrass [9, 24]: 0 | Blackgrass plant response rating [9, 17]: 0 | Blackgrass plant response rating [9, 18]: 0 | Blackgrass plant response rating [9, 19]: 0 | Blackgrass plant response rating [9, 20]: 0 | Plant response rating, Soybean ([10]; Preemergence, Rate 62 g/ha): 0 | Plant response rating, Soybean ([10]; Preemergence, Rate 125 g/ha): 0 | Soybean plant response rating [10, 17]: 0 | Soybean plant response rating [10, 18]: 0 | Soybean plant response rating [10, 19]: 0 | Soybean plant response rating [10, 20]: 1 | Corn plant response rating [11, 21]: 0 | Corn plant response rating [11, 22]: 0 | Plant response rating, Corn [11, 23]: 0 | Plant response rating, Corn [11, 24]: 0 | Corn plant response rating [11, 17]: 0 | Corn plant response rating [11, 18]: 0 | Corn plant response rating [11, 19]: 0 | Corn plant response rating [11, 20]: 0 | Nutsedge plant response rating [12, 21]: 0 | Plant response rating, Nutsedge ([12]; Preemergence, Rate 62 g/ha): 0 | Plant response rating, Nutsedge ([12]; Preemergence, Rate 125 g/ha): 0 | Nutsedge plant response rating [12, 17]: 0 | Nutsedge plant response rating [12, 18]: 0 | Nutsedge plant response rating [12, 19]: 0 | Nutsedge plant response rating [12, 20]: 0 | Velvetleaf plant response rating [13, 21]: 0 | Plant response rating, Velvetleaf ([13]; Preemergence, Rate 62 g/ha): 0 | Plant response rating, Velvetleaf ([13]; Preemergence, Rate 125 g/ha): 0 | Velvetleaf plant response rating [13, 17]: 0 | Velvetleaf plant response rating [13, 18]: 0 | Velvetleaf plant response rating [13, 19]: 0 | Velvetleaf plant response rating [13, 20]: 0 | Crabgrass plant response rating [14, 21]: 0 | Crabgrass plant response rating [14, 22]: 0 | Plant response rating, Crabgrass [14, 23]: 0 | Plant response rating, Crabgrass [14, 24]: 0 | Crabgrass plant response rating [14, 17]: 0 | Crabgrass plant response rating [14, 18]: 0 | Crabgrass plant response rating [14, 19]: 0 | Crabgrass plant response rating [14, 20]: 0 | Plant response rating, Ducksalad (0 to 10 scale, 0 is no effect, 10 is complete control) [15, 25]: 0 | Ducksalad plant response rating (0 to 10 scale, 0 is no effect, 10 is complete control) [15, 26]: 0 | Ducksalad plant response rating [15, 27]: 0 | Ducksalad plant response rating [15, 28]: 0 | Plant response rating, Rice (0 to 10 scale, 0 is no effect, 10 is complete control) [16, 25]: 0 | Rice plant response rating (0 to 10 scale, 0 is no effect, 10 is complete control) [16, 26]: 0 | Rice plant response rating [16, 27]: 0 | Rice plant response rating [16, 28]: 0
